{
  "source": "patent US20250361267A1",
  "about": "“CHIMERIC COMPOUND FOR DEGRADING CYCLOPHILIN A, PREPARATION METHOD THEREFOR, AND USE THEREOF” (INSTITUTE OF MICROBIOLOGY, CHINESE ACADEMY OF SCIENCES, priority 2022, published 2025)",
  "key": {"A549 cells [1]": {"system": "A549 cells", "assay": "Migration and infiltration of lung cancer cells, Transwell chambers", "type": "cell-based", "procedure": "(§1) (1) A549 cells in the logarithmic phase were collected, the concentration of the cell suspension was adjusted, and 100 μL was added per well. The cells to be tested were plated to a density of 10^3-10^4 cells/well and incubated at 37° C. under 5% CO2 until the bottom of the wells was covered by a single layer of cells.\n(§2) (2) Different concentrations of the compound represented by Formula I were added: 0, 10, 10^2, 10^3, 10^4 and 10^5 nM/well, with 3 replicate wells set, and incubated at 37° C. under 5% CO2 for 12 hours.\nThe upper chamber of a 24-well cell culture insert ([…] pore size) was coated (no migration) or (invasive) with a matrix (1 mg/mL) and dried at 37° C. for 30 min.\n(3) A549/WT and A549/CypA-cells were trypsinized, washed and suspended in serum-free DMEM after treatment with 20 ng/ml TGF-β for 48 h.\n(1) DMEM containing 10% fetal bovine serum was added to the lower chamber per approximately 5×10^4 cells inserted in the upper chamber.\n(2) After incubation for 6 h (migration) or 24 h (invasion), non-migrating or […] cells residing on the upper part of the insert membrane were removed with a cotton swab.\n(3) The cells that migrated to the underside of the membrane were fixed and stained with 2% crystal violet in ethanol.\n(4) The stained cells were observed and counted under a Japan Olympus CKX41 microscope."}, "IBV-induced pneumonia": {"system": "IBV-induced pneumonia", "parameters": "species or system C57BL/6 mice", "details": "mouse, in vivo"}, "[2]": {"system": "IL-1B, TNF-α, IL-6 and IFN-γ", "parameters": "species or system C57BL/6 mice", "details": "mouse, in vivo"}, "A549 cells [3]": {"system": "A549 cells", "assay": "Effect on A549 cell activity by CCK-8 method", "type": "cell-based", "details": "0 to 10^5 nM, 12 hours", "procedure": "as §1, with “10^3 to 10^4” for “10^3-10^4”\nas §2\n(1) 10 μL CCK-8 reagent was added to the above cells in each well and reacted for 2 h.\n(2) The incubation was terminated, and the culture medium in the wells was carefully aspirated.\n(3) The absorbance of each well was measured using a microplate reader with a wavelength of 450 nm.\n(4) The absorbance ratio between the experimental group and the control group was calculated as follows: Cell viability=(Absorbance of the experimental group−Blank control)+ (Absorbance of the control group−Blank control)×100%."}, "CypA [4]": {"target": "CypA (Mus musculus, UniProt P17742)", "sequence (P17742 whole entry)": "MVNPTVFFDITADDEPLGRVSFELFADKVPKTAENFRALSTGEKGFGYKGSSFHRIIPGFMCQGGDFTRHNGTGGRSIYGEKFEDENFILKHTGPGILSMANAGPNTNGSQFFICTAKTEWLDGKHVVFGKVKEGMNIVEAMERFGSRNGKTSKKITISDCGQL", "type": "in vivo, C57BL/6 mice", "details": "IBV-infected mice, 10 mg/kg/day, 7 days after infection"}, "CypA [5]": {"target": "T1, CypA (Homo sapiens, UniProt P62937)", "T1 construct": "A549 cells in the logarithmic phase were collected; endogenous in cells; host or cells: A549", "T1 sequence (P62937 whole entry)": "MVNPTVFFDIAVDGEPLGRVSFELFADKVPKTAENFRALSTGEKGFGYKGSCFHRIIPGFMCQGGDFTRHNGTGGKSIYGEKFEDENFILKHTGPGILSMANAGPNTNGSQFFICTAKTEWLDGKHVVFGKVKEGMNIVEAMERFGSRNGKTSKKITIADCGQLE", "assay": "CypA degradation in A549 cells by Western Blot", "type": "cell-based", "details": "A549 cell line", "procedure": "as §1, with “10^3 to 10^4” for “10^3-10^4”\nas §2\n(1) The treated cells were scraped off from the culture medium, suspended thoroughly, and then collected by centrifugation at 300 g for 5 minutes. After washing with PBS once, the PBS was discarded.\n(2) 100 μL of 2× Loading Buffer was added to each sample, shaken thoroughly to mix well, denatured at 100° C. for 5 minutes, and stored at −20° C. after mixing well or directly used for Western Blot detection. The Formula of 5× Loading Buffer was as follows: 250 mM Tris-HCl (pH 6.8), 10% (W/V) SDS, 0.5% (W/V) bromophenol blue, 50% (V/V) glycerol, 5% (W/V) β-mercaptoethanol (2-ME). […]\n2) Sample preparation: protein samples were prepared according to experimental requirements, centrifuged, mixed well, and loaded into the loading wells of SDS-PAGE gel. The loading volume was adjusted appropriately according to the protein quantification results. […]"}, "rheumatoid arthritis": {"system": "rheumatoid arthritis", "assay": "Rat arthritis model (Freund complete adjuvant)", "type": "in vivo, Lewis rats", "details": "rats, 10 mg/kg tail vein three times/week", "procedure": "The BCG vaccine was inactivated in a water bath at 80° C. for 1 h, ground thoroughly with incomplete Freund adjuvant, and mixed well to prepare 15 mg/mL Freund complete adjuvant (FCA). Lewis rats were divided into 4 groups: blank group (PBS), untreated group (UT), treatment group 1 (compound) and treatment group 2 (MTX (methotrexate)), with 5 rats in each group and a body weight of […]. Except for the PBS group, rats were intradermally injected with 0.1 mL of FCA in the right hind paw. On day 14 after injection, rats in treatment group 1 (compound) were injected with the compound (10 mg/kg of body weight, dissolved in 100 μL of PBS) through the tail vein three times/week; rats in treatment group 2 (MTX (methotrexate)) were intraperitoneally injected with methotrexate (1.2 mg/kg of body weight) three times/week.\nThe circumference of the metatarsophalangeal joint was measured. The circumference of the ankle joint of the left hind paw (on the secondary lesion side) of all rats was measured once before modeling, before administration and 3 weeks after administration, respectively, and the percentage of joint swelling was calculated.\nThe joint index was determined by joint swelling score before administration (Day 0) and 3 weeks after administration. Scoring was carried out based on the redness and swelling degree of the ankle and toe joints of the front and rear limbs of rats and the affected joint index, as follows: 0 for normal; 1 for the redness and swelling of one joint; 2 for the redness and swelling of two or more joints; 3 for severe redness and swelling of the paw below the ankle joint; 4 for the redness and swelling of the entire paw including the ankle joint and inability to bear weight. The limbs were scored separately, and the cumulative sum of the scores was the joint index.\n(1) On the day 21 of administration, rats were euthanized after blood collection. […]\n(2) Joint synovial proliferation and the degree of sub-synovial inflammation were observed under a light microscope, and synovial cell proliferation was scored."}},
  "data": [
    {"compound": "Cc1ncsc1-c1ccc(C(C)NC(=O)[C@@H]2C[C@@H](O)CN2C(=O)[C@H](NC(=O)COCCCCCOc2cccc(O)c2C(=O)NC(=O)NC2CCCCC2)C(C)(C)C)cc1", "note": "(stereo partly drawn) [Formula I]", "values": [
      {"measurement": "infiltration of lung cancer cells", "setting": "A549 cells [1]; Transwell with matrix, 24 h", "result": "significantly reduce"},
      {"measurement": "migration of lung cancer cells", "setting": "A549 cells [1]; Transwell, 6 h", "result": "significantly reduce"},
      {"measurement": "lung injury (lung index, pathology, pathological scores)", "setting": "IBV-induced pneumonia", "result": "significantly alleviate lung injury"},
      {"measurement": "expression of IFN-γ in the lung tissue", "setting": "[2]", "result": "significantly reduce"},
      {"measurement": "expression of IL-1B in the lung tissue", "setting": "[2]", "result": "significantly reduce"},
      {"measurement": "expression of IL-6 in the lung tissue", "setting": "[2]", "result": "significantly reduce"},
      {"measurement": "expression of TNF-α in the lung tissue", "setting": "[2]", "result": "significantly reduce"},
      {"measurement": "lung inflammation", "setting": "[2]", "result": "alleviating lung inflammation"},
      {"measurement": "cell viability", "setting": "A549 cells [3]", "result": "above 80%"},
      {"measurement": "expression of CypA in mouse lung tissue", "setting": "CypA [4]", "result": "significantly reduce"},
      {"measurement": "DC50", "setting": "CypA [5]; 12 hours, Western Blot, read-out: half-degradation concentration on CypA", "result": "< 100", "unit": "nM"},
      {"measurement": "degradation effect on the CypA protein", "setting": "CypA [5]; WB results", "result": "clearly observed"},
      {"measurement": "joint index of the ankle joint", "setting": "rheumatoid arthritis; 3 weeks after administration", "result": "reduce"},
      {"measurement": "joint swelling", "setting": "rheumatoid arthritis; 3 weeks after administration", "result": "significantly relieve"},
      {"measurement": "inflammation of the ankle joint (ankle pathological scores)", "setting": "rheumatoid arthritis; day 21, HE staining", "result": "alleviate"}
    ]}
  ]
}
